# pIC50: −log10 of the molar value.
# Tests used:
# myeloperoxidase (MPO) [1] = molecular target: T1, myeloperoxidase (MPO) (Homo sapiens (Human), UniProt P05164); assay: MPO chlorination assay (APF assay); type: biochemical; conditions: potency range class
# How it was run: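 Chlorinating activity followed by APF cleavage to fluorescein (485/535 nm, 3 min kinetic read) after adding APF and 10 μM H2O2. Beforehand, 200 pM enzyme, compound and 120 mM NaCl sat 10 min at room temperature in 100 mM KPi, pH 7.4. Initial-rate slopes gave % inhibition; IC50 by Hill-slope fit.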
# myeloperoxidase (MPO) [2] = molecular target: T1, myeloperoxidase (MPO); assay: MPO peroxidation assay (Amplex Red assay); type: biochemical; conditions: potency range class
# How it was run: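 IC50 values come from a four-parameter fit of rates taken from the linear 180-540 s portion of a 15 min kinetic read of resorufin (Ex 535/Em 590 nm). Amplex Red (200 μM) plus 10 mM H2O2 was added after a 10 min room-temperature preincubation of inhibitor with 200 pM MPO and 40 nM H2O2 in 100 mM KPi, pH 7.4.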
# T1 sequence (P05164 49-745): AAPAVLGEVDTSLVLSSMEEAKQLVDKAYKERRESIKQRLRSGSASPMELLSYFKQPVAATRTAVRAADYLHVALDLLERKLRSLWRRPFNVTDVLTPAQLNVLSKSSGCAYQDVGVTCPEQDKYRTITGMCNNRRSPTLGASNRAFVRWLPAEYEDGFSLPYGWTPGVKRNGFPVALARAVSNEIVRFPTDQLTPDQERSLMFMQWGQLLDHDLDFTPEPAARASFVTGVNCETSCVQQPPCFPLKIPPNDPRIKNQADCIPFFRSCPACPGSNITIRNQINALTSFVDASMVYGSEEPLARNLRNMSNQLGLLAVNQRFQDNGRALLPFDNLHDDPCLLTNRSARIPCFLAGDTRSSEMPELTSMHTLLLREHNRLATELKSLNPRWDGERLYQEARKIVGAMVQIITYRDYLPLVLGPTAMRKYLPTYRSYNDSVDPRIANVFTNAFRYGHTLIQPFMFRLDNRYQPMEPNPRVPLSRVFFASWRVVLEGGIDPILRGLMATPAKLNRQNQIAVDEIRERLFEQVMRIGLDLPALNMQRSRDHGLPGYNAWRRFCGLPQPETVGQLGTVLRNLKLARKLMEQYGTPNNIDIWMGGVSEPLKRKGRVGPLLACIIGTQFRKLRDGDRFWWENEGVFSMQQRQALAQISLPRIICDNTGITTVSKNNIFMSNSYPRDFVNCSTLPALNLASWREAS
smiles,measurement,setting,value
"Nc1cc(Cc2cnn(Cc3cc([C@@H]4CCNC4)ccc3OC(F)F)c2)c2nn[nH]c2n1 [Example 200, 7-[(1-{[2-(Difluoromethoxy)-5-[(3 S)-pyrrolidin-3-yl]phenyl]methyl}-1H-pyrazol-4-yl)methyl]-3H-[1,2,3]triazolo[4,5-b]pyridin-5-amine]",pIC50,myeloperoxidase (MPO) [1],7.00 to 9.00
same,pIC50,myeloperoxidase (MPO) [2],7.00 to 9.00
"Nc1cc(Cc2cnn(Cc3cc([C@@H]4CC(=O)NC4CO)cc(C(F)(F)F)c3)c2)c2nn[nH]c2n1 (stereo partly drawn) [Example 201, (4S)-4-(3-{[4-({5-Amino-3H-[1,2,3]triazolo[4,5-b]pyridin-7-yl}methyl)-1H-pyrazol-1-yl]methyl}-5-(trifluoromethyl)phenyl)-5-(hydroxymethyl)pyrrolidin-2-one]",pIC50,myeloperoxidase (MPO) [1],7.00 to 9.00
same,pIC50,myeloperoxidase (MPO) [2],7.00 to 9.00
"CC1C[C@@H](c2cccc(Cn3cc(Cc4cc(N)nc5[nH]nnc45)cn3)c2)CN1 (stereo partly drawn) [Example 202, 7-{[1-({3-[(3S)-5-Methylpyrrolidin-3-yl]phenyl}methyl)-1H-pyrazol-4-yl]methyl}-3H-[1,2,3]triazolo[4,5-b]pyridin-5-amine]",pIC50,myeloperoxidase (MPO) [1],7.00 to 9.00
same,pIC50,myeloperoxidase (MPO) [2],7.00 to 9.00
"Nc1cc(Cc2cnn(Cc3cccc([C@H]4CNC(Cc5ccccc5)C4)c3)c2)c2nn[nH]c2n1 (stereo partly drawn) [Example 203, 7-{[1-({3-[(3S)-5-benzylpyrrolidin-3-yl]phenyl}methyl)-1H-pyrazol-4-yl]methyl}-3H-[1,2,3]triazolo[4,5-b]pyridin-5-amine]",pIC50,myeloperoxidase (MPO) [1],7.00 to 9.00
same,pIC50,myeloperoxidase (MPO) [2],7.00 to 9.00
"CCCC1C[C@@H](c2cccc(Cn3cc(Cc4cc(N)nc5[nH]nnc45)cn3)c2)CN1 (stereo partly drawn) [Example 204, 7-{[1-({3-[(3S)-5-propylpyrrolidin-3-yl]phenyl}methyl)-1H-pyrazol-4-yl]methyl}-3H-[1,2,3]triazolo[4,5-b]pyridin-5-amine]",pIC50,myeloperoxidase (MPO) [1],7.00 to 9.00
same,pIC50,myeloperoxidase (MPO) [2],7.00 to 9.00
"CC(C)C1C[C@@H](c2cccc(Cn3cc(Cc4cc(N)nc5[nH]nnc45)cn3)c2)CN1 (stereo partly drawn) [Example 205, 7-{[1-({3-[(3S)-5-(propan-2-yl)pyrrolidin-3-yl]phenyl}methyl)-1H-pyrazol-4-yl]methyl}-3H-[1,2,3]triazolo[4,5-b]pyridin-5-amine]",pIC50,myeloperoxidase (MPO) [1],7.00 to 9.00
same,pIC50,myeloperoxidase (MPO) [2],7.00 to 9.00
"Nc1cc(Cc2cnn(Cc3cccc(C4CCNCC4)c3)c2)c2nn[nH]c2n1 [Example 206, 7-[(1-{[3-(Piperidin-4-yl)phenyl]methyl}-1H-pyrazol-4-yl)methyl]-3H-[1,2,3]triazolo[4,5-b]pyridin-5-amine]",pIC50,myeloperoxidase (MPO) [1],6.00 to 7.00
same,pIC50,myeloperoxidase (MPO) [2],7.00 to 9.00
"Nc1cc(Cc2cnn(Cc3cccc(CC4CCNCC4)c3)c2)c2nn[nH]c2n1 [Example 207, 7-[(1-{[3-(Piperidin-4-ylmethyl)phenyl]methyl}-1H-pyrazol-4-yl)methyl]-3H-[1,2,3]triazolo[4,5-b]pyridin-5-amine]",pIC50,myeloperoxidase (MPO) [1],6.00 to 7.00
same,pIC50,myeloperoxidase (MPO) [2],7.00 to 9.00
"Nc1cc(Cc2cnn(Cc3cccc(C4CCCN4)c3)c2)c2nn[nH]c2n1 (centres unmarked) [Example 208, 7-[(1-{[3-(Pyrrolidin-2-yl)phenyl]methyl}-1H-pyrazol-4-yl)methyl]-3H-[1,2,3]triazolo[4,5-b]pyridin-5-amine]",pIC50,myeloperoxidase (MPO) [1],7.00 to 9.00
same,pIC50,myeloperoxidase (MPO) [2],7.00 to 9.00
"CN1CCC(c2cccc(Cn3cc(Cc4cc(N)nc5[nH]nnc45)cn3)c2)CC1 [Example 209, 7-[(1-{[3-(1-Methylpiperidin-4-yl)phenyl]methyl}-1H-pyrazol-4-yl)methyl]-3H-[1,2,3]triazolo[4,5-b]pyridin-5-amine]",pIC50,myeloperoxidase (MPO) [1],6.00 to 7.00
same,pIC50,myeloperoxidase (MPO) [2],6.00 to 7.00
"Nc1cc(Cc2cnn(Cc3cccc(C4CNC4)c3)c2)c2nn[nH]c2n1 [Example 210, 7-[(1-{[3-(Azetidin-3-yl)phenyl]methyl}-1H-pyrazol-4-yl)methyl]-3H-[1,2,3]triazolo[4,5-b]pyridin-5-amine]",pIC50,myeloperoxidase (MPO) [1],7.00 to 9.00
same,pIC50,myeloperoxidase (MPO) [2],7.00 to 9.00
"CC1CC(c2cccc(Cn3cc(Cc4cc(N)nc5[nH]nnc45)cn3)c2)CCN1 (centres unmarked) [Example 211, 7-[(1-{[3-(2-Methylpiperidin-4-yl)phenyl]methyl}-1H-pyrazol-4-yl)methyl]-3H-[1,2,3]triazolo[4,5-b]pyridin-5-amine]",pIC50,myeloperoxidase (MPO) [1],7.00 to 9.00
same,pIC50,myeloperoxidase (MPO) [2],7.00 to 9.00
"CC1CNCCC1c1cccc(Cn2cc(Cc3cc(N)nc4[nH]nnc34)cn2)c1 (centres unmarked) [Example 212, 7-[(1-{[3-(3-Methylpiperidin-4-yl)phenyl]methyl}-1H-pyrazol-4-yl)methyl]-3H-[1,2,3]triazolo[4,5-b]pyridin-5-amine]",pIC50,myeloperoxidase (MPO) [1],7.00 to 9.00
same,pIC50,myeloperoxidase (MPO) [2],7.00 to 9.00
"Nc1cc(Cc2cnn(Cc3cccc(C4(O)CCNCC4F)c3)c2)c2nn[nH]c2n1 (centres unmarked) [Example 213, 4-(3-{[4-({5-Amino-3H-[1,2,3]triazolo[4,5-b]pyridin-7-yl}methyl)-1H-pyrazol-1-yl]methyl}phenyl)-3-fluoropiperidin-4-ol]",pIC50,myeloperoxidase (MPO) [1],6.00 to 7.00
same,pIC50,myeloperoxidase (MPO) [2],7.00 to 9.00
"Nc1cc(Cc2cnn(Cc3cccc(C4CCNCC4(F)F)c3)c2)c2nn[nH]c2n1 (centres unmarked) [Example 214, 7-[(1-{[3-(3,3-Difluoropiperidin-4-yl)phenyl]methyl}-1H-pyrazol-4-yl)methyl]-3H-[1,2,3]triazolo[4,5-b]pyridin-5-amine]",pIC50,myeloperoxidase (MPO) [1],6.00 to 7.00
same,pIC50,myeloperoxidase (MPO) [2],7.00 to 9.00
"Nc1cc(Cc2cnn(Cc3ccccc3C3CCNCC3)c2)c2nn[nH]c2n1 [Example 215, 7-[(1-{[2-(Piperidin-4-yl)phenyl]methyl}-1H-pyrazol-4-yl)methyl]-3H-[1,2,3]triazolo[4,5-b]pyridin-5-amine]",pIC50,myeloperoxidase (MPO) [1],6.00 to 7.00
same,pIC50,myeloperoxidase (MPO) [2],7.00 to 9.00
"Nc1cc(Cc2cnn(Cc3cccc(C4CCNCC4F)c3)c2)c2nn[nH]c2n1 (centres unmarked) [Example 216, 7-[(1-{[3-(3-Fluoropiperidin-4-yl)phenyl]methyl}-1H-pyrazol-4-yl)methyl]-3H-[1,2,3]triazolo[4,5-b]pyridin-5-amine]",pIC50,myeloperoxidase (MPO) [1],7.00 to 9.00
same,pIC50,myeloperoxidase (MPO) [2],7.00 to 9.00
"Nc1cc(Cc2cnn(Cc3cccc(N4CCNCC4)c3)c2)c2nn[nH]c2n1 [Example 217, 7-[(1-{[3-(Piperazin-1-yl)phenyl]methyl}-1H-pyrazol-4-yl)methyl]-3H-[1,2,3]triazolo[4,5-b]pyridin-5-amine]",pIC50,myeloperoxidase (MPO) [1],6.00 to 7.00
same,pIC50,myeloperoxidase (MPO) [2],7.00 to 9.00
"Nc1cc(Cc2cnn(Cc3cccc(N4CCNC(c5cccc(Cl)c5)C4)c3)c2)c2nn[nH]c2n1 (centres unmarked) [Example 218, 7-{[1-({3-[3-(3-Chlorophenyl)piperazin-1-yl]phenyl}methyl)-1H-pyrazol-4-yl]methyl}-3H-[1,2,3]triazolo[4,5-b]pyridin-5-amine]",pIC50,myeloperoxidase (MPO) [1],7.00 to 9.00
same,pIC50,myeloperoxidase (MPO) [2],6.00 to 7.00
"Nc1cc(Cc2cnn(Cc3cccc(N4CCNC(c5ccccc5)C4)c3)c2)c2nn[nH]c2n1 (centres unmarked) [Example 219, 7-[(1-{[3-(3-Phenylpiperazin-1-yl)phenyl]methyl}-1H-pyrazol-4-yl)methyl]-3H-[1,2,3]triazolo[4,5-b]pyridin-5-amine]",pIC50,myeloperoxidase (MPO) [1],7.00 to 9.00
same,pIC50,myeloperoxidase (MPO) [2],6.00 to 7.00
"Nc1cc(Cc2cnn(Cc3cccc(N4CCN[C@@H](COCc5ccccc5)C4)c3)c2)c2nn[nH]c2n1 [Example 220, 7-{[1-({3-[(3R)-3-[(Benzyloxy)methyl]piperazin-1-yl]phenyl}methyl)-1H-pyrazol-4-yl]methyl}-3H-[1,2,3]triazolo[4,5-b]pyridin-5-amine]",pIC50,myeloperoxidase (MPO) [1],7.00 to 9.00
same,pIC50,myeloperoxidase (MPO) [2],6.00 to 7.00
"C[C@@H]1CN(c2cccc(Cn3cc(Cc4cc(N)nc5[nH]nnc45)cn3)c2)C[C@H](C)N1 [Example 221, 7-{[1-({3-[cis-3,5-Dimethylpiperazin-1-yl]phenyl}methyl)-1H-pyrazol-4-yl]methyl}-3H-[1,2,3]triazolo[4,5-b]pyridin-5-amine]",pIC50,myeloperoxidase (MPO) [1],7.00 to 9.00
same,pIC50,myeloperoxidase (MPO) [2],7.00 to 9.00
"Nc1cc(Cc2cnn(Cc3cccc(N4CCNC(C(F)(F)F)C4)c3)c2)c2nn[nH]c2n1 (centres unmarked) [Example 222, 7-{[1-({3-[3-(Trifluoromethyl)piperazin-1-yl]phenyl}methyl)-1H-pyrazol-4-yl]methyl}-3H-[1,2,3]triazolo[4,5-b]pyridin-5-amine]",pIC50,myeloperoxidase (MPO) [1],6.00 to 7.00
same,pIC50,myeloperoxidase (MPO) [2],6.00 to 7.00
"Nc1cc(Cc2cnn(Cc3cccc(N4CCNC5(CCCCC5)C4)c3)c2)c2nn[nH]c2n1 [Example 223, 7-({1-[(3-{1,4-Diazaspiro[5.5]undecan-4-yl}phenyl)methyl]-1H-pyrazol-4-yl}methyl)-3H-[1,2,3]triazolo[4,5-b]pyridin-5-amine]",pIC50,myeloperoxidase (MPO) [1],7.00 to 9.00
same,pIC50,myeloperoxidase (MPO) [2],6.00 to 7.00
"Nc1cc(Cc2cnn(Cc3cccc(N4C[C@@H]5C[C@H]4CN5)c3)c2)c2nn[nH]c2n1 [Example 224, 7-{[1-({3-[(1S,4S)-2,5-Diazabicyclo[2.2.1]heptan-2-yl]phenyl}methyl)-1H-pyrazol-4-yl]methyl}-3H-[1,2,3]triazolo[4,5-b]pyridin-5-amine]",pIC50,myeloperoxidase (MPO) [1],7.00 to 9.00
same,pIC50,myeloperoxidase (MPO) [2],6.00 to 7.00
"Nc1cc(Cc2cnn(Cc3cccc(N4CCNC5(CCC5)C4)c3)c2)c2nn[nH]c2n1 [Example 225, 7-({1-[(3-{5,8-Diazaspiro[3.5]nonan-8-yl}phenyl)methyl]-1H-pyrazol-4-yl}methyl)-3H-[1,2,3]triazolo[4,5-b]pyridin-5-amine]",pIC50,myeloperoxidase (MPO) [1],7.00 to 9.00
same,pIC50,myeloperoxidase (MPO) [2],6.00 to 7.00
"C[C@@H]1CN(c2cc(Cn3cc(Cc4cc(N)nc5[nH]nnc45)cn3)ccc2F)C[C@H](C)N1 [Example 226, 7-{[1-({3-[cis-3,5-Dimethylpiperazin-1-yl]-4-fluorophenyl}methyl)-1H-pyrazol-4-yl]methyl}-3H-[1,2,3]triazolo[4,5-b]pyridin-5-amine]",pIC50,myeloperoxidase (MPO) [1],6.00 to 7.00
same,pIC50,myeloperoxidase (MPO) [2],7.00 to 9.00
"Nc1cc(Cc2cnn(Cc3cccc(N4CCNCC4Cc4ccccc4)c3)c2)c2nn[nH]c2n1 (centres unmarked) [Example 227, 7-[(1-{[3-(2-Benzylpiperazin-1-yl)phenyl]methyl}-1H-pyrazol-4-yl)methyl]-3H-[1,2,3]triazolo[4,5-b]pyridin-5-amine]",pIC50,myeloperoxidase (MPO) [1],6.00 to 7.00
same,pIC50,myeloperoxidase (MPO) [2],6.00 to 7.00

# Source: US10407422B2, “Triazolopyridine inhibitors of myeloperoxidase” (priority 2015, dated 2019)
